Experimental data from paper PMC5578959, “Selective LRRK2 kinase inhibition reduces phosphorylation of endogenous Rab10 and Rab12 in human peripheral mononuclear blood cells” (Scientific Reports, 2017).

Tests used:
Experiment in all cases: KiNativ profiling in human PBMCs
Type in all cases: binding
[1] = system: T1, FER
T1 construct: purchased ActivX Technologies (KiNativ)
Protocol: (§1) Compounds were shipped to ActivX Technologies (San Diego, US) where LRRK2 target engagement and broad kinase profiling was performed using KiNativ™ procedures. Live cell treatment of human peripheral blood mononuclear cells (PBMCs) at two compound concentrations (1 µM and 0.1 µM) were used to evaluate and compare in vitro target engagement and kinase selectivity, respectively (see Supplementary File 1).

[2] = system: T2, Erk1; conditions: Lys2
T2 construct: purchased ActivX Technologies (KiNativ)
Protocol: as §1

[3] = system: T3, CaMKK2; conditions: Lys2
T3 construct: purchased ActivX Technologies (KiNativ)
Protocol: as §1

[4] = system: ABL,ARG; conditions: Activation Loop
Protocol: as §1

[5] = system: T4, IRE1; conditions: Lys2
T4 construct: purchased ActivX Technologies (KiNativ)
Protocol: as §1

[6] = system: T5, KHS1; conditions: Lys1
T5 construct: purchased ActivX Technologies (KiNativ)
Protocol: as §1

[7] = system: T6, ULK1; conditions: Lys2
T6 construct: purchased ActivX Technologies (KiNativ)
Protocol: as §1

[8] = system: T7, CK1g2; conditions: Lys2
T7 construct: purchased ActivX Technologies (KiNativ)
Protocol: as §1

[9] = system: T8, TAO2; conditions: Lys2
T8 construct: purchased ActivX Technologies (KiNativ)
Protocol: as §1

[10] = system: MARK2,MARK3; conditions: Lys2
Protocol: as §1

[11] = system: T9, MSK2 domain1; conditions: Lys2
T9 construct: MSK2 domain1; purchased ActivX Technologies (KiNativ)
Protocol: as §1

[12] = system: T10, NEK7; conditions: Lys1
T10 construct: purchased ActivX Technologies (KiNativ)
Protocol: as §1

[13] = system: T11, STLK6; conditions: Lys2
T11 construct: purchased ActivX Technologies (KiNativ)
Protocol: as §1

[14] = system: PKCa,PKCb; conditions: Lys2
Protocol: as §1

[15] = system: T12, PI4KB; conditions: ATP
T12 construct: purchased ActivX Technologies (KiNativ)
Protocol: as §1

[16] = system: T13, CaMK2g; conditions: Lys1
T13 construct: purchased ActivX Technologies (KiNativ)
Protocol: as §1

[17] = system: TAO1,TAO3; conditions: Lys2
Protocol: as §1

[18] = system: T14, YANK3; conditions: Lys2
T14 construct: purchased ActivX Technologies (KiNativ)
Protocol: as §1

[19] = system: T15, SMG1; conditions: ATP
T15 construct: purchased ActivX Technologies (KiNativ)
Protocol: as §1

[20] = system: T16, MARK2; conditions: Lys1
T16 construct: purchased ActivX Technologies (KiNativ)
Protocol: as §1

[21] = system: T17, PITSLRE; conditions: Lys2
T17 construct: purchased ActivX Technologies (KiNativ)
Protocol: as §1

[22] = system: PCTAIRE1,PCTAIRE3; conditions: Lys2
Protocol: as §1

[23] = system: IKKe,TBK1; conditions: Lys2
Protocol: as §1

[24] = system: T18, BTK; conditions: Activation Loop
T18 construct: purchased ActivX Technologies (KiNativ)
Protocol: as §1

[25] = system: T19, MAP2K5; conditions: Lys2
T19 construct: purchased ActivX Technologies (KiNativ)
Protocol: as §1

[26] = system: T20, JAK1 domain2
T20 construct: JAK1 domain2; purchased ActivX Technologies (KiNativ)
Protocol: as §1

[27] = system: T21, PKR
T21 construct: purchased ActivX Technologies (KiNativ)
Protocol: as §1

[28] = system: T22, CSK
T22 construct: purchased ActivX Technologies (KiNativ)
Protocol: as §1

[29] = system: T23, FGR; conditions: Activation Loop
T23 construct: purchased ActivX Technologies (KiNativ)
Protocol: as §1

[30] = system: T24, CDC2; conditions: Lys2
T24 construct: purchased ActivX Technologies (KiNativ)
Protocol: as §1

[31] = system: T25, IKKa; conditions: Lys2
T25 construct: purchased ActivX Technologies (KiNativ)
Protocol: as §1

[32] = system: T26, CaMK1d
T26 construct: purchased ActivX Technologies (KiNativ)
Protocol: as §1

[33] = system: T27, LYN
T27 construct: purchased ActivX Technologies (KiNativ)
Protocol: as §1

[34] = system: T28, CDK7
T28 construct: purchased ActivX Technologies (KiNativ)
Protocol: as §1

[35] = system: T29, LCK; conditions: 1µM; Activation Loop
T29 construct: purchased ActivX Technologies (KiNativ)
Protocol: as §1

[36] = system: T30, OSR1; conditions: Lys2
T30 construct: purchased ActivX Technologies (KiNativ)
Protocol: as §1

SMILES: Cc1cccc(-c2cc(Nc3ccn(C)n3)nc3[nH]cc(C#N)c23)c1 [Lu AF58786]
- Inhibition ([1]; 0.1µM, Activation Loop): -5.4%
- Inhibition ([1]; 0.1µM, Lys1): 1.7%
- Inhibition ([1]; 1µM, Activation Loop): -16.1%
- Inhibition ([1]; 1µM, Lys1): 5.0%
- Inhibition ([2]; 0.1µM): 2.3%
- Inhibition ([2]; 1µM): 1.5%
- Inhibition ([3]; 0.1µM): 13.8%
- Inhibition ([3]; 1µM): 1.3%
- Inhibition ([4]; 0.1µM): -81.9%
- Inhibition ([4]; 1µM): -7.3%
- Inhibition ([5]; 0.1µM): -7.8%
- Inhibition ([5]; 1µM): -11.6%
- Inhibition ([6]; 0.1µM): 3.0%
- Inhibition ([6]; 1µM): -2.5%
- Inhibition ([7]; 0.1µM): -3.7%
- Inhibition ([7]; 1µM): -7.0%
- Inhibition ([8]; 0.1µM): 5.2%
- Inhibition ([8]; 1µM): -0.12%
- Inhibition ([9]; 0.1µM): 17.3%
- Inhibition ([9]; 1µM): 18.3%
- Inhibition ([10]; 0.1µM): -38.4%
- Inhibition ([10]; 1µM): -36.2%
- Inhibition ([11]; 0.1µM): 28.3%
- Inhibition ([11]; 1µM): 19.0%
- Inhibition ([12]; 0.1µM): -17.5%
- Inhibition ([12]; 1µM): 16.7%
- Inhibition ([13]; 0.1µM): -9.8%
- Inhibition ([13]; 1µM): -1.6%
- Inhibition ([14]; 0.1µM): -5.7%
- Inhibition ([14]; 1µM): -0.9%
- Inhibition ([15]; 0.1µM): 15.3%
- Inhibition ([15]; 1µM): 6.2%
- Inhibition ([16]; 0.1µM): 3.3%
- Inhibition ([16]; 1µM): -7.2%
- Inhibition ([17]; 0.1µM): 27.6%
- Inhibition ([17]; 1µM): 15.9%
- Inhibition ([18]; 0.1µM): 11.1%
- Inhibition ([18]; 1µM): -8.5%
- Inhibition ([19]; 0.1 µM, DTVTIHSVGGTITILPTKTKPK): -6.3%
- Inhibition ([19]; 0.1 µM, SYPYLFKGLEDLHLDER): 12.6%
- Inhibition ([19]; 1 µM, DTVTIHSVGGTITILPTKTKPK): -13.9%
- Inhibition ([19]; 1 µM, SYPYLFKGLEDLHLDER): 4.3%
- Inhibition ([20]; 0.1µM): -6.2%
- Inhibition ([20]; 1µM): -21.2%
- Inhibition ([21]; 0.1µM): 2.7%
- Inhibition ([21]; 1µM): -9.8%
- Inhibition ([22]; 0.1µM): 5.6%
- Inhibition ([22]; 1µM): -11.1%
- Inhibition ([23]; 0.1µM): -16.4%
- Inhibition ([23]; 1µM): -9.8%
- Inhibition ([24]; 0.1µM): 25.8%
- Inhibition ([24]; 1µM): 9.5%
- Inhibition ([25]; 0.1µM): -0.318%
- Inhibition ([25]; 1µM): 17.4%
- Inhibition ([26]; 0.1µM, Activation Loop): 0.9%
- Inhibition ([26]; 0.1µM, Lys1): -25.0%
- Inhibition ([26]; 1µM, Activation Loop): -39.0%
- Inhibition ([26]; 1µM, Lys1): -35.1%
- Inhibition ([27]; 0.1µM, Activation Loop): 6.9%
- Inhibition ([27]; 0.1µM, Lys2): 5.1%
- Inhibition ([27]; 1µM, Activation Loop): -2.5%
- Inhibition ([27]; 1µM, Lys2): 4.5%
- Inhibition ([28]; 0.1µM, Activation Loop): 7.6%
- Inhibition ([28]; 0.1µM, Lys1): 16.0%
- Inhibition ([28]; 1µM, Activation Loop): -1.7%
- Inhibition ([28]; 1µM, Lys1): 6.8%
- Inhibition ([29]; 0.1µM): 11.4%
- Inhibition ([29]; 1µM): 5.2%
- Inhibition ([30]; 0.1 µM, DLKPQNLLIDDK): -19.4%
- Inhibition ([30]; 0.1 µM, DLKPQNLLIDDKGTIK): 5.9%
- Inhibition ([30]; 1 µM, DLKPQNLLIDDK): -27.3%
- Inhibition ([30]; 1 µM, DLKPQNLLIDDKGTIK): 6.8%
- Inhibition ([31]; 0.1µM): 9.8%
- Inhibition ([31]; 1µM): 6.8%
- Inhibition ([32]; 0.1µM, Lys1): 11.8%
- Inhibition ([32]; 0.1µM, Lys2): -11.6%
- Inhibition ([32]; 1µM, Lys1): -4.5%
- Inhibition ([32]; 1µM, Lys2): -6.3%
- Inhibition ([33]; 0.1µM, Activation Loop): -18.7%
- Inhibition ([33]; 0.1µM, Lys1): -21.4%
- Inhibition ([33]; 1µM, Activation Loop): 1.0%
- Inhibition ([33]; 1µM, Lys1): -4.5%
- Inhibition ([34]; 0.1µM, Lys1): 3.7%
- Inhibition ([34]; 0.1µM, Lys2): 9.8%
- Inhibition ([34]; 1µM, Lys1): -0.256%
- Inhibition ([34]; 1µM, Lys2): 18.0%
- Inhibition [35]: 5.7%
- Inhibition ([36]; 0.1µM): 19.8%
- Inhibition ([36]; 1µM): -4.1%
